Results: article PMC5218480 (PLoS ONE, 2017)

Tested on: MV-4-11 cells
Experiment: Gene expression microarray analysis (Affymetrix PrimeView) and GSEA
Type: cell-based, human
Parameters: RFU PODN (11730768_x_at) / Fold change /veh PODN (11730768_x_at) / RFU LINC00158 (11744669_a_at) / Fold change /veh LINC00158 (11744669_a_at) / RFU DUSP10 (11751237_a_at) / Fold change /veh DUSP10 (11751237_a_at) / RFU ID3 (11757404_x_at) / Fold change /veh ID3 (11757404_x_at) / RFU PLEKHG5 (11737974_s_at) / Fold change /veh PLEKHG5 (11737974_s_at) / RFU LRRC4B (11730491_at) / Fold change /veh LRRC4B (11730491_at) / RFU GIMAP4 (11747438_a_at) / Fold change /veh GIMAP4 (11747438_a_at) / RFU KRT8 (11758183_x_at) / Fold change /veh KRT8 (11758183_x_at) / RFU CNN1 (11734310_a_at) / Fold change /veh CNN1 (11734310_a_at) / RFU VPS37D (11726825_at) / Fold change /veh VPS37D (11726825_at) / RFU C10orf10 (11716522_x_at) / Fold change /veh C10orf10 (11716522_x_at) / RFU KIR2DL2 /// KIR2DL4 /// KIR2DL5A /// KIR2DL5B /// KIR2DS1 /// KIR2DS2 /// KIR2DS3 /// KIR2DS4 /// KIR3DL3 /// KIR3DL3 /// KIR3DS1 (11738374_at) / Fold change /veh KIR2DL2 /// KIR2DL4 /// KIR2DL5A /// KIR2DL5B /// KIR2DS1 /// KIR2DS2 /// KIR2DS3 /// KIR2DS4 /// KIR3DL3 /// KIR3DL3 /// KIR3DS1 (11738374_at) / RFU C1QL1 (11718748_at) / Fold change /veh C1QL1 (11718748_at) / RFU TMPRSS4 (11747572_a_at) / Fold change /veh TMPRSS4 (11747572_a_at) / RFU HAMP (11756126_x_at) / Fold change /veh HAMP (11756126_x_at) / RFU RNFT2 (11725882_a_at) / Fold change /veh RNFT2 (11725882_a_at) / RFU NR4A2 (11747474_a_at) / Fold change /veh NR4A2 (11747474_a_at) / RFU ABCC12 (11746883_a_at) / Fold change /veh ABCC12 (11746883_a_at) / RFU TMEM136 (11760407_x_at) / Fold change /veh TMEM136 (11760407_x_at) / RFU CLDN22 /// WWC2 (11732394_at) / Fold change /veh CLDN22 /// WWC2 (11732394_at) / RFU HLA-DPB1 (11760878_x_at) / Fold change /veh HLA-DPB1 (11760878_x_at) / RFU SPINT1 (11716480_a_at) / Fold change /veh SPINT1 (11716480_a_at) / RFU GAP43 (11754022_s_at) / Fold change /veh GAP43 (11754022_s_at) / RFU A4GNT (11735810_at) / Fold change /veh A4GNT (11735810_at) / RFU PRB3 (11715151_x_at) / Fold change /veh PRB3 (11715151_x_at) / RFU TUBB4B (11761932_at) / Fold change /veh TUBB4B (11761932_at) / RFU CAPN14 (11732068_a_at) / Fold change /veh CAPN14 (11732068_a_at) / RFU TMCC2 (11721928_a_at) / Fold change /veh TMCC2 (11721928_a_at) / RFU IRGQ (11745062_a_at) / Fold change /veh IRGQ (11745062_a_at) / RFU FAM174B (11720279_a_at) / Fold change /veh FAM174B (11720279_a_at) / RFU TMPRSS4 (11748680_a_at) / Fold change /veh TMPRSS4 (11748680_a_at) / RFU FAM212B (11763350_a_at) / Fold change /veh FAM212B (11763350_a_at) / RFU PLEKHG5 (11743358_a_at) / Fold change /veh PLEKHG5 (11743358_a_at) / RFU ZSCAN30 (11745921_a_at) / Fold change /veh ZSCAN30 (11745921_a_at) / RFU CMKLR1 (11741424_a_at) / Fold change /veh CMKLR1 (11741424_a_at) / RFU LOC101060620 /// MAPK8IP1 (11723275_at) / Fold change /veh LOC101060620 /// MAPK8IP1 (11723275_at) / RFU SPTSSB (11747773_x_at) / Fold change /veh SPTSSB (11747773_x_at) / RFU PRSS12 (11739890_at) / Fold change /veh PRSS12 (11739890_at) / RFU BIN1 (11741810_x_at) / Fold change /veh BIN1 (11741810_x_at) / RFU WNT11 (11732464_a_at) / Fold change /veh WNT11 (11732464_a_at) / RFU C10orf10 (11716521_a_at) / Fold change /veh C10orf10 (11716521_a_at) / RFU C5orf56 (11738089_at) / Fold change /veh C5orf56 (11738089_at) / RFU CYB561 (11721691_x_at) / Fold change /veh CYB561 (11721691_x_at) / RFU ANKRD19P (11752326_a_at) / Fold change /veh ANKRD19P (11752326_a_at) / RFU OR2T12 /// OR2T33 /// OR2T8 (11738714_s_at) / Fold change /veh OR2T12 /// OR2T33 /// OR2T8 (11738714_s_at) / RFU VCAN (11748164_a_at) / Fold change /veh VCAN (11748164_a_at) / RFU JSRP1 (11732532_at) / Fold change /veh JSRP1 (11732532_at) / RFU KRTAP10-11 (11738290_x_at) / Fold change /veh KRTAP10-11 (11738290_x_at) / RFU MYO3A (11730013_a_at) / Fold change /veh MYO3A (11730013_a_at) / RFU EBF3 (11725865_a_at) / Fold change /veh EBF3 (11725865_a_at) / RFU CAMK2N1 (11719241_x_at) / Fold change /veh CAMK2N1 (11719241_x_at) / RFU C5orf56 (11738088_a_at) / Fold change /veh C5orf56 (11738088_a_at) / RFU OLFML3 (11715873_a_at) / Fold change /veh OLFML3 (11715873_a_at) / RFU LOC100653217 /// NTM (11731650_a_at) / Fold change /veh LOC100653217 /// NTM (11731650_a_at) / RFU MAPK11 (11762145_a_at) / Fold change /veh MAPK11 (11762145_a_at) / RFU FIZ1 (11724087_x_at) / Fold change /veh FIZ1 (11724087_x_at) / RFU OASL (11726364_x_at) / Fold change /veh OASL (11726364_x_at) / RFU SOX15 (11748057_x_at) / Fold change /veh SOX15 (11748057_x_at) / RFU CD79A (11719716_a_at) / Fold change /veh CD79A (11719716_a_at) / RFU HIST1H1D (11736915_at) / Fold change /veh HIST1H1D (11736915_at) / RFU CASKIN2 (11723855_a_at) / Fold change /veh CASKIN2 (11723855_a_at) / RFU LOC730098 (11760151_x_at) / Fold change /veh LOC730098 (11760151_x_at) / RFU OR4N2 (11742367_at) / Fold change /veh OR4N2 (11742367_at) / RFU PRRT2 (11749266_a_at) / Fold change /veh PRRT2 (11749266_a_at) / RFU SNX32 (11753110_a_at) / Fold change /veh SNX32 (11753110_a_at) / RFU CDHR5 (11726645_a_at) / Fold change /veh CDHR5 (11726645_a_at) / RFU RCAN1 (11760418_a_at) / Fold change /veh RCAN1 (11760418_a_at) / RFU FAM167A (11723789_a_at) / Fold change /veh FAM167A (11723789_a_at) / RFU FAM26E (11764081_at) / Fold change /veh FAM26E (11764081_at) / RFU ISYNA1 (11749810_s_at) / Fold change /veh ISYNA1 (11749810_s_at) / RFU ACY1 (11761880_at) / Fold change /veh ACY1 (11761880_at) / RFU 11764098_at / Fold change /veh 11764098_at / RFU SAMD14 (11745864_x_at) / Fold change /veh SAMD14 (11745864_x_at) / RFU NPB (11741838_a_at) / Fold change /veh NPB (11741838_a_at) / RFU TMPRSS6 (11731388_a_at) / Fold change /veh TMPRSS6 (11731388_a_at) / RFU KRTAP10-2 (11738614_at) / Fold change /veh KRTAP10-2 (11738614_at) / RFU ARHGAP8 /// PRR5-ARHGAP8 (11727945_x_at) / Fold change /veh ARHGAP8 /// PRR5-ARHGAP8 (11727945_x_at) / RFU KRTAP5-7 /// NADSYN1 (11734609_at) / Fold change /veh KRTAP5-7 /// NADSYN1 (11734609_at) / RFU RASL12 (11751679_a_at) / Fold change /veh RASL12 (11751679_a_at) / RFU CDKN2B (11736163_a_at) / Fold change /veh CDKN2B (11736163_a_at) / RFU PRF1 (11729649_at) / Fold change /veh PRF1 (11729649_at) / RFU, ZNF638 /// ZNF638-IT1 / Fold change vs veh, ZNF638 /// ZNF638-IT1 / RFU, PANK3 / Fold change vs veh, PANK3 / RFU, SH3YL1 / Fold change vs veh, SH3YL1 / RFU, ZEB2 / Fold change vs veh, ZEB2 / RFU, NRIP1 / Fold change vs veh, NRIP1 / RFU, PTTG1IP / Fold change vs veh, PTTG1IP / RFU, CAPN2 / Fold change vs veh, CAPN2 / RFU, MED14 / Fold change vs veh, MED14 / RFU, SNORA58 / Fold change vs veh, SNORA58 / RFU, C1orf63 / Fold change vs veh, C1orf63 / RFU, LRRFIP1 / Fold change vs veh, LRRFIP1 / RFU, NDUFAF7 / Fold change vs veh, NDUFAF7 / RFU, SLC12A2 / Fold change vs veh, SLC12A2 / RFU, IBTK / Fold change vs veh, IBTK / RFU, ESF1 / Fold change vs veh, ESF1 / Fold change vs veh, TMEM50B / RFU, TAOK1 / Fold change vs veh, TAOK1 / RFU, ACBD3 / Fold change vs veh, ACBD3 / RFU, TMA16 / Fold change vs veh, TMA16 / RFU, RWDD3 / Fold change vs veh, RWDD3 / RFU, BCAT1 / Fold change vs veh, BCAT1 / RFU, EDEM3 / Fold change vs veh, EDEM3 / RFU, TMEM33 / Fold change vs veh, TMEM33 / RFU, WDR75 / Fold change vs veh, WDR75 / RFU, AHCTF1 / Fold change vs veh, AHCTF1 / RFU, TFRC / Fold change vs veh, TFRC / RFU, ZDHHC17 / Fold change vs veh, ZDHHC17 / RFU, NOM1 / Fold change vs veh, NOM1 / RFU, ARL8B / Fold change vs veh, ARL8B / RFU, ZBTB11 / Fold change vs veh, ZBTB11 / RFU, TAMM41 / Fold change vs veh, TAMM41 / RFU, KIAA1704 /// LOC100996395 / Fold change vs veh, KIAA1704 /// LOC100996395 / RFU, ING1 / Fold change vs veh, ING1 / RFU, TRMT61B / Fold change vs veh, TRMT61B / RFU, FUBP3 / Fold change vs veh, FUBP3 / RFU, TP53 / Fold change vs veh, TP53 / RFU, TNKS2 / Fold change vs veh, TNKS2 / RFU, ZFP14 / Fold change vs veh, ZFP14 / RFU, ACTR2 / Fold change vs veh, ACTR2 / RFU, PPP3R1 / Fold change vs veh, PPP3R1 / RFU, PIK3R1 / Fold change vs veh, PIK3R1 / RFU, HNRNPA1 / Fold change vs veh, HNRNPA1 / RFU, RNF170 / Fold change vs veh, RNF170 / RFU, ZNF28 / Fold change vs veh, ZNF28 / RFU, RNGTT / Fold change vs veh, RNGTT / RFU, OGT / Fold change vs veh, OGT / RFU, BRD1 / Fold change vs veh, BRD1 / RFU, MARS / Fold change vs veh, MARS / RFU, ZNF655 / Fold change vs veh, ZNF655 / RFU, FAHD1 / Fold change vs veh, FAHD1 / RFU, BDP1 / Fold change vs veh, BDP1 / RFU, LRRCC1 / Fold change vs veh, LRRCC1 / RFU, ARID1A / Fold change vs veh, ARID1A / RFU, ZNF146 / Fold change vs veh, ZNF146 / RFU, ZNF330 / Fold change vs veh, ZNF330 / RFU, GPN3 / Fold change vs veh, GPN3 / RFU, C9orf123 / Fold change vs veh, C9orf123 / RFU, N4BP2L2 / Fold change vs veh, N4BP2L2 / RFU, ARFIP1 / Fold change vs veh, ARFIP1 / RFU, FAM179B / Fold change vs veh, FAM179B / RFU, BCL10 / Fold change vs veh, BCL10 / RFU, UHRF1BP1L / Fold change vs veh, UHRF1BP1L / RFU, BET1 / Fold change vs veh, BET1 / RFU, CNOT2 / Fold change vs veh, CNOT2 / RFU, ZNF268 / Fold change vs veh, ZNF268 / Fold change vs veh, ZNF507 / RFU, DGCR2 / Fold change vs veh, DGCR2 / RFU, WDSUB1 / Fold change vs veh, WDSUB1 / Fold change vs veh, HSP90B1 /// MIR3652 / RFU, ADSS / Fold change vs veh, ADSS / RFU, GK / Fold change vs veh, GK / RFU, ZNF148 / Fold change vs veh, ZNF148 / RFU, TAF9 / Fold change vs veh, TAF9 / RFU, SLC1A5 / Fold change vs veh, SLC1A5 / RFU, SLMO2 / Fold change vs veh, SLMO2 / RFU, ABCC4 / Fold change vs veh, ABCC4 / RFU, LOC101060439 /// RAP1B / Fold change vs veh, LOC101060439 /// RAP1B / RFU, RFX7 / Fold change vs veh, RFX7 / RFU, GTPBP10 / Fold change vs veh, GTPBP10 / RFU, CNEP1R1 / Fold change vs veh, CNEP1R1 / RFU, BIVM-ERCC5 /// ERCC5 / Fold change vs veh, BIVM-ERCC5 /// ERCC5 / RFU, ILF3 / Fold change vs veh, ILF3 / RFU 11762660_at / Fold change /veh 11762660_at / RFU VCAN (11757783_s_at) / Fold change /veh VCAN (11757783_s_at) / RFU DDX43 (11728927_at) / Fold change /veh DDX43 (11728927_at) / RFU KRT8 (11758188_x_at) / Fold change /veh KRT8 (11758188_x_at) / RFU NKD1 (11759106_at) / Fold change /veh NKD1 (11759106_at) / RFU SRD5A1 (11742802_a_at) / Fold change /veh SRD5A1 (11742802_a_at) / RFU TPSAB1 /// TPSB2 (11721975_s_at) / Fold change /veh TPSAB1 /// TPSB2 (11721975_s_at) / RFU GSTM3 (11746129_a_at) / Fold change /veh GSTM3 (11746129_a_at) / RFU IL23R (11737362_x_at) / Fold change /veh IL23R (11737362_x_at) / RFU TMEM51 (11727254_a_at) / Fold change /veh TMEM51 (11727254_a_at) / RFU PIWIL2 (11732686_x_at) / Fold change /veh PIWIL2 (11732686_x_at) / RFU ORM1 (11744905_x_at) / Fold change /veh ORM1 (11744905_x_at) / RFU CCDC152 (11743942_at) / Fold change /veh CCDC152 (11743942_at) / RFU ECM1 (11717891_a_at) / Fold change /veh ECM1 (11717891_a_at) / RFU IL23R (11748794_a_at) / Fold change /veh IL23R (11748794_a_at) / RFU TNFAIP8L3 (11732012_x_at) / Fold change /veh TNFAIP8L3 (11732012_x_at) / RFU MBOAT4 (11741988_at) / Fold change /veh MBOAT4 (11741988_at) / RFU 11764193_at / Fold change /veh 11764193_at / RFU TMEM53 (11763286_at) / Fold change /veh TMEM53 (11763286_at) / RFU MAGEB2 (11727129_at) / Fold change /veh MAGEB2 (11727129_at) / RFU TMEM200A (11744735_a_at) / Fold change /veh TMEM200A (11744735_a_at) / RFU CCDC152 (11751479_a_at) / Fold change /veh CCDC152 (11751479_a_at) / RFU FAM211A (11726209_a_at) / Fold change /veh FAM211A (11726209_a_at) / RFU RGS16 (11746705_a_at) / Fold change /veh RGS16 (11746705_a_at) / RFU VCAN (11755009_s_at) / Fold change /veh VCAN (11755009_s_at) / RFU RHOB (11743442_s_at) / Fold change /veh RHOB (11743442_s_at) / RFU RGS16 (11720943_a_at) / Fold change /veh RGS16 (11720943_a_at) / RFU RGS16 (11720944_at) / Fold change /veh RGS16 (11720944_at) / RFU, VPS4B / Fold change vs veh, VPS4B / RFU, CREB1 / Fold change vs veh, CREB1 / RFU, DNAJC13 / Fold change vs veh, DNAJC13 / RFU, GNAQ / Fold change vs veh, GNAQ / RFU, CDK5R1 / Fold change vs veh, CDK5R1 / RFU, ZRANB3 / Fold change vs veh, ZRANB3 / RFU, CUL4A / Fold change vs veh, CUL4A / RFU, CCNY / Fold change vs veh, CCNY / RFU, UFL1 / Fold change vs veh, UFL1 / RFU, COG3 / Fold change vs veh, COG3 / RFU, DIAPH2 / Fold change vs veh, DIAPH2 / RFU, SKA2 / Fold change vs veh, SKA2 / RFU, AFF3 / Fold change vs veh, AFF3 / RFU, LMF1 / Fold change vs veh, LMF1 / RFU, IPO11 / Fold change vs veh, IPO11 / RFU, DFFB / Fold change vs veh, DFFB / RFU, FOXP1 / Fold change vs veh, FOXP1 / RFU, CARD8 / Fold change vs veh, CARD8 / RFU, STRN3 / Fold change vs veh, STRN3 / RFU, ADK / Fold change vs veh, ADK / RFU, RASSF2 / Fold change vs veh, RASSF2 / RFU, WIPF1 / Fold change vs veh, WIPF1 / RFU, LARP1B / Fold change vs veh, LARP1B / RFU, RASA1 / Fold change vs veh, RASA1 / RFU, RB1 / Fold change vs veh, RB1 / RFU, PPFIA1 / Fold change vs veh, PPFIA1 / RFU, MAT2A / Fold change vs veh, MAT2A / RFU, CCT5 / Fold change vs veh, CCT5 / RFU, WDR92 / Fold change vs veh, WDR92 / RFU, CUX1 / Fold change vs veh, CUX1 / RFU, TTC7A / Fold change vs veh, TTC7A / RFU, TMEM135 / Fold change vs veh, TMEM135 / RFU, DEPTOR / Fold change vs veh, DEPTOR / RFU, CPM / Fold change vs veh, CPM / RFU, DNAJB6 / Fold change vs veh, DNAJB6 / RFU, CACNA2D3 / Fold change vs veh, CACNA2D3 / RFU, DTX4 / Fold change vs veh, DTX4 / RFU, TFCP2 / Fold change vs veh, TFCP2 / RFU, GMCL1 /// GMCL1P1 / Fold change vs veh, GMCL1 /// GMCL1P1 / RFU, AEBP2 / Fold change vs veh, AEBP2 / RFU, SNHG1 /// SNORD22 /// SNORD25 /// SNORD26 /// SNORD27 /// SNORD28 /// SNORD29 /// SNORD31 / Fold change vs veh, SNHG1 /// SNORD22 /// SNORD25 /// SNORD26 /// SNORD27 /// SNORD28 /// SNORD29 /// SNORD31 / Fold change (Aza/veh), C12orf56 (ProbeSet 11735607_a_at) / Fold change (ACY-1035/veh), C12orf56 (ProbeSet 11735607_a_at) / Fold change (Aza/veh), FGFR1OP (ProbeSet 11751329_s_at) / Fold change (ACY-1035/veh), FGFR1OP (ProbeSet 11751329_s_at) / Fold change (Aza/veh), VPS36 (ProbeSet 11739960_a_at) / Fold change (ACY-1035/veh), VPS36 (ProbeSet 11739960_a_at) / RFU SYPL1 (11715823_x_at) / Fold change /veh SYPL1 (11715823_x_at) / RFU IGFBP7 (11715501_s_at) / Fold change /veh IGFBP7 (11715501_s_at) / RFU REEP3 (11722064_at) / Fold change /veh REEP3 (11722064_at) / RFU IGLL1 (11728026_x_at) / Fold change /veh IGLL1 (11728026_x_at): dose or concentration left out as unconfirmed
Settings: ProbeSet 11741070_a_at; LIST B

Nc1ccc(-c2cccs2)cc1NC(=O)c1ccc2c(c1)cc(C1CC1)n2CCN1CCOCC1 [ACY-1035]
RFU, ZNF146: 2312.59 RFU
